The target of this assay is T1, GluD1-N651S (Homo sapiens, UniProt Q9ULK0, N651S).
T1 construct: expressed in transfected cells; host or cells: Xenopus laevis oocytes injected with cRNA
T1 sequence (Q9ULK0 21-1009 N651S): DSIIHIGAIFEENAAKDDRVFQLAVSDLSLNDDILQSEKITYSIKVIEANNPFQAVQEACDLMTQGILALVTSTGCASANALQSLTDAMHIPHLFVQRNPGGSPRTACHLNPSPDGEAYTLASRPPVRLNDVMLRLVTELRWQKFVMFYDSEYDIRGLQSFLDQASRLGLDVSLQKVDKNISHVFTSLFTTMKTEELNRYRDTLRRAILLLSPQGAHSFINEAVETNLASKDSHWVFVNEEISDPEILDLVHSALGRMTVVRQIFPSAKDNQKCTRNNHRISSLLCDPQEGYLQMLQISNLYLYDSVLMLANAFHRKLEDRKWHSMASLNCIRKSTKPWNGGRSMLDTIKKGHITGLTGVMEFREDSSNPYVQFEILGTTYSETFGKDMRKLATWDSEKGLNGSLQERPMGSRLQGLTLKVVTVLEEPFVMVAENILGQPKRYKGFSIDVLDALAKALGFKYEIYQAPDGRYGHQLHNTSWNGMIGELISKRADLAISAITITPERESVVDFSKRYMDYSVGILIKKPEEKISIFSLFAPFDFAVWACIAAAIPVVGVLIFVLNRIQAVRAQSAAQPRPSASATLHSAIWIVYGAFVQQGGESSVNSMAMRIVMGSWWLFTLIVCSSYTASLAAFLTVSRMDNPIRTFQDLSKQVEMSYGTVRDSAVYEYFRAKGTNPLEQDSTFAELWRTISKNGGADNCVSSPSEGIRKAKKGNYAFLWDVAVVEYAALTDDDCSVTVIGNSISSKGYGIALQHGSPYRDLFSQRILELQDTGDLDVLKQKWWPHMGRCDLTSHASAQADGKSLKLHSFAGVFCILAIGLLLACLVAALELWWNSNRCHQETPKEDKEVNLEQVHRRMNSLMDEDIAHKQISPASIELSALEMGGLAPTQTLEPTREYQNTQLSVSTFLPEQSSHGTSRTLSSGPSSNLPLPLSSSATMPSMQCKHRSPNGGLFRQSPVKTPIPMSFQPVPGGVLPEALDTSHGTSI
The experiment in a line: TEVC of constitutive current, Xenopus oocytes expressing GluD1-N651S. It counts as cell-based. The note with it: positive = increase, negative = decrease of activity.

Structures are written as SMILES.

Take `N[C@H](CO)C(=O)O` [D-serine]: the “D-Serine effect (Baseline −10 mM D-Serine)” value (10 mM D-serine) is given as 7.6 ± 1.6 (10) nA.
Regarding `N=C(N)c1ccc(OCCCCCOc2ccc(C(=N)N)cc2)cc1` [Pentamidine, pentamidine], the “Pentamidine effect (Baseline −100 μM Pentamidine)” value (100 μM pentamidine) is given as 38 ± 8.3 (10) nA.

For the origin of these results see publication PMC10840383, “Clinical features, functional consequences, and rescue pharmacology of missense GRID1 and GRID2 human variants” (Human Molecular Genetics, 2023).
